Test results published in publication PMC12736194, “1-Azinyl-1′-Alkenylferrocenes with Anticholinesterase, Antioxidant, and Antiaggregating Activities as Multifunctional Agents for Potential Treatment of Alzheimer’s Disease” (Pharmaceuticals, 2025).

Assays:
[1] = molecular target: T1, equine (Equus caballus) serum BChE (EcBChE) (Equus caballus, UniProt P81908); assay: Inhibition of EcBChE (spectrophotometric, BTCh iodide substrate); type: biochemical; conditions: K/Na-phosphate buffer pH 7.5, 25 °C; mean ± SEM, n = 3
T1 construct: equine (Equus caballus) serum BChE (EcBChE); purchased Sigma-Aldrich; host or cells: horse serum
Description: (§1) In these experiments, human (Homo sapiens) erythrocyte AChE (HsAChE), equine (Equus caballus) serum BChE (EcBChE), and porcine (Sus scrofa) liver CES (SsCES) were used because of their ready availability, relatively low cost, and high sequence homology of EcBChE and SsCES to the corresponding human enzymes.
(§2) Enzymes, substrates, and reference compounds were sourced from Sigma-Aldrich (St. Louis, MO, USA). Enzyme activity was measured spectrophotometrically according to [91] using ATCh iodide, BTCh iodide, and 4-NPA as substrates for HsAChE, EcBChE, and SsCES, respectively. Experimental conditions included a K/Na-phosphate buffer (100 mM), at 25 °C, with pH 7.5 for AChE and BChE assays, and pH 8.0 for CES assays. Measurements were conducted on a BioRad Benchmark Plus microplate spectrophotometer (Hercules, CA, USA). Test compounds were dissolved in DMSO with a final solvent concentration of 2% (v/v) in the incubation mixture.

[2] = system: porcine (Sus scrofa) liver CES (SsCES); assay: Inhibition of SsCES (spectrophotometric, 4-NPA substrate); type: biochemical; conditions: compound 20 μM; n.a. = not active; mean ± SEM, n = 3
Source text: as §1
Although the dominant carboxylesterase in porcine liver is CES1 [64], the preparation sourced from Sigma-Aldrich is not a purified or recombinant CES1. Therefore, we have designated the preparation used in our experimental studies as SsCES. However, in computational molecular docking studies, it is necessary to choose a single defined protein as the docking target. Thus, the logical choice for our computational studies of CES was the most abundant and best characterized isoform found in porcine liver, which is SsCES1.
as §2

[3] = system: reprogrammed human neuronal cell cultures (MSC-Neu); assay: Cytotoxicity, MTT test, MSC-Neu; conditions: read-out: Cytotoxic activity, LC50, MSC-Neu, 24 h, 1 to 1024 μM, mean ± SE, n = 3
Description: (§3) Cytotoxic activity was assessed using the MTT test. […] For each compound, the half-lethal concentration parameter LC50 (μM) was calculated.
(§4) This study employed SH-SY5Y neuroblastoma cells and dental pulp-derived mesenchymal stem cells (MSC-DP). Cells were cultured in DMEM/F12 with 10% (v/v) FBS under standard conditions. MSC-DP were reprogrammed into neuronal-like cells (MSC-Neu) using Neurobasal medium with addition of Neuromax and 3% (v/v) FBS for 5 days.
(§5) The cytotoxic effect of Fcs was assessed using the Mossman test for cellular dehydrogenase activity (MTT test). […] For each compound, the half-lethal concentration parameter (LC50) in μM was calculated as described previously.

[4] = Ferric reducing antioxidant power (FRAP) assay; conditions: Trolox equivalents; acetate buffer pH 3.6, 1 h, 37 °C
[5] = ABTS radical cation scavenging activity assay; conditions: ethanol, 1 h; for IC50: ABTS^•+ 100 μM; for ABTS^•+-Scavenging Activity, TEAC: Trolox equivalent antioxidant capacity, mean ± SEM, n = 3
[6] = molecular target: T2, HsAChE (Homo sapiens, UniProt P22303); assay: Kinetic study of HsAChE inhibition (Lineweaver-Burk); type: biochemical
T2 construct: human (Homo sapiens) erythrocyte AChE (HsAChE); purchased Sigma-Aldrich; host or cells: human erythrocytes
Description: (§6) . To determine the relationship between enzyme activity and inhibitor concentration at different substrate levels, we conducted kinetic assays. The kinetic data analysis, using Lineweaver–Burk plots, is shown in Figure 2A and Figure 2B for HsAChE and EcBChE, respectively.
(§7) To investigate the mechanisms of HsAChE and EcBChE inhibition, enzyme kinetics were analyzed (detailed in [92]). After a 5 min equilibration at 25 °C with three different inhibitor concentrations and six substrate concentrations, residual enzyme activity was measured as described. Lineweaver–Burk plots (1/V vs. 1/[S]) were used to determine competitive (Ki) and non-competitive (αKi) inhibition constants.

[7] = system: human neuroblastoma cell cultures (SH-SY5Y); assay: Cytotoxicity, MTT test, SH-SY5Y; conditions: read-out: Cytotoxic activity, LC50, SH-SY5Y, 24 h, 1 to 1024 μM, mean ± SE, n = 3
Description: as §3, §4, §5

[8] = molecular target: T3, human β-amyloid (1–42) (HsAβ42) (Homo sapiens, UniProt P05067); assay: Inhibition of HsAβ42 self-aggregation (thioflavin T fluorescence); type: biochemical; conditions: HsAβ42 50 µM, compound 100 µM, 24 h, 37 °C; n.a. = not active
T3 construct: purchased AnaSpec Inc
Description: The potential of compounds from all three groups (1a-e, 5a-e, 7a-d) to inhibit HsAβ42 self-aggregation was evaluated using a Thioflavin T (ThT) fluorescence assay.
Inhibition of HsAβ42 self-aggregation by test compounds was studied using the thioflavin T (ThT) fluorescence method with minor modifications as described in detail in [79]. Lyophilized HFIP-pretreated HsAβ42 (AnaSpec Inc., Fremont, CA, USA, 0.5 mg) was dissolved in DMSO to obtain a stable 500 μM solution. The samples of 50 μM HsAβ42 in 215 mM Na-phosphate buffer pH 8.0 were incubated for 24 h at 37 °C in the absence or presence of 100 μM test compounds. Myricetin in the same concentration was used as a reference. After incubation, 5 μM ThT in 50 mM glycine-NaOH buffer pH 8.5 was added, and the fluorescence was measured at 440 nm (exc.) and 485 nm (emis.) with a FLUOStar Optima microplate reader. Blanks consisted of 215 mM Na-phosphate buffer, pH 8.0, 20% (v/v) DMSO or test compounds, respectively. The inhibition (%) of HsAβ42 self-aggregation by the test compounds was calculated.

[9] = molecular target: T4, EcBChE (Equus caballus, UniProt P81908); assay: Kinetic study of EcBChE inhibition (Lineweaver-Burk); type: biochemical
T4 construct: equine (Equus caballus) serum BChE (EcBChE); purchased Sigma-Aldrich; host or cells: horse serum
Description: as §6, §7

[10] = molecular target: T5, peripheral anionic site (PAS) of Electrophorus electricus AChE (EeAChE) (Electrophorus electricus, UniProt O42275); assay: Propidium displacement from the EeAChE PAS (fluorescence); type: binding; conditions: compound concentration 20 µM; EeAChE 7 μM, propidium iodide 8 μM, Tris-HCl pH 8.0; n.a. = not active
T5 construct: purchased Sigma-Aldrich type VI-S
Description: A fluorescence-based assay assessed the ability of test compounds to competitively displace propidium iodide from AChE’s PAS [65, 93]. […] EeAChE (7 μM) was incubated with 20 μM test compounds in Tris-HCl buffer (pH 8.0) for 15 min, followed by addition of propidium iodide (8 μM) as described in detail in [95]. Fluorescence readings (530 nm excitation, 600 nm emission) were obtained using a FLUOStar Optima microplate reader (LabTech, Ortenberg, Germany). Displacement (%) was calculated.

[11] = molecular target: T6, human (Homo sapiens) erythrocyte AChE (HsAChE) (Homo sapiens, UniProt P22303); assay: Inhibition of HsAChE (spectrophotometric, ATCh iodide substrate); type: biochemical; conditions: K/Na-phosphate buffer pH 7.5, 25 °C; mean ± SEM, n = 3
T6 construct: human (Homo sapiens) erythrocyte AChE (HsAChE); purchased Sigma-Aldrich; host or cells: human erythrocytes
Description: as §1, §2

[12] = system: MCF7 cell line; conditions: Figure 12; read-out: LC50, MCF7 cell line; cited from earlier work
[13] = cited from earlier work

T4 sequence (P81908 whole entry): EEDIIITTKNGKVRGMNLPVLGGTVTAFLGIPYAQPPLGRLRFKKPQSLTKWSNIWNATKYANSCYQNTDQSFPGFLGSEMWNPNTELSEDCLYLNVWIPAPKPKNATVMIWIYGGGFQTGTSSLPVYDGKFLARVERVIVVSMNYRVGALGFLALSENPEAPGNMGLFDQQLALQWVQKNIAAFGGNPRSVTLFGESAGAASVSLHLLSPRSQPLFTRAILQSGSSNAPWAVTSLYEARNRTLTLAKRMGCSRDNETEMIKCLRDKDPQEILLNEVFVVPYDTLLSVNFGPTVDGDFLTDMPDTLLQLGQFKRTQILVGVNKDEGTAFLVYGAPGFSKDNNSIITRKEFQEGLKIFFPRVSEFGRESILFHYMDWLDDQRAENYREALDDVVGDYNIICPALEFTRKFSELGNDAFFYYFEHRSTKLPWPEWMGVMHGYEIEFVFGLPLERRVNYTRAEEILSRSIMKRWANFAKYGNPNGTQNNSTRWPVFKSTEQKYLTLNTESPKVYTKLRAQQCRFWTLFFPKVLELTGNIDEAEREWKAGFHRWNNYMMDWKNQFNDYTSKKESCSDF
T1 sequence (P81908 whole entry): as above
T2 sequence (P22303 32-617 isoform P22303-2 limits assumed): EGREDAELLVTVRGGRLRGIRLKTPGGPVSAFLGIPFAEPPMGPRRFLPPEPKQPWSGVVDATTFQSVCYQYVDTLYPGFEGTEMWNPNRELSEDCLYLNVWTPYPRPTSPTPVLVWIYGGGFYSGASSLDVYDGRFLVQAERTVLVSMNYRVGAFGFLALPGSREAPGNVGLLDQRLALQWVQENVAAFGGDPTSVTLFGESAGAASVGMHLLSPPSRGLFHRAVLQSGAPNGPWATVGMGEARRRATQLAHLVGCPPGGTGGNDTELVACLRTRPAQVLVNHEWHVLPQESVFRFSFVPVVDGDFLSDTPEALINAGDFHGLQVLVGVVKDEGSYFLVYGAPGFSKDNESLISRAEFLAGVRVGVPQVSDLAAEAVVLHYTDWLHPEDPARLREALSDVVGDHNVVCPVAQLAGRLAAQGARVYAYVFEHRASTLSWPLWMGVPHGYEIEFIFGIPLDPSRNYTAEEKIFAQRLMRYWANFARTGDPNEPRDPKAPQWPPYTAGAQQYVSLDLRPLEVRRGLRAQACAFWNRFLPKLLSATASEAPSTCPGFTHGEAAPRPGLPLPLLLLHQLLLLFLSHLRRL
T6 sequence (P22303 32-617 isoform P22303-2 limits assumed): as above
T3 sequence (P05067 672-713 limits assumed): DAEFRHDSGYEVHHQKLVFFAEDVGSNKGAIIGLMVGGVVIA
T5 sequence (O42275 24-633): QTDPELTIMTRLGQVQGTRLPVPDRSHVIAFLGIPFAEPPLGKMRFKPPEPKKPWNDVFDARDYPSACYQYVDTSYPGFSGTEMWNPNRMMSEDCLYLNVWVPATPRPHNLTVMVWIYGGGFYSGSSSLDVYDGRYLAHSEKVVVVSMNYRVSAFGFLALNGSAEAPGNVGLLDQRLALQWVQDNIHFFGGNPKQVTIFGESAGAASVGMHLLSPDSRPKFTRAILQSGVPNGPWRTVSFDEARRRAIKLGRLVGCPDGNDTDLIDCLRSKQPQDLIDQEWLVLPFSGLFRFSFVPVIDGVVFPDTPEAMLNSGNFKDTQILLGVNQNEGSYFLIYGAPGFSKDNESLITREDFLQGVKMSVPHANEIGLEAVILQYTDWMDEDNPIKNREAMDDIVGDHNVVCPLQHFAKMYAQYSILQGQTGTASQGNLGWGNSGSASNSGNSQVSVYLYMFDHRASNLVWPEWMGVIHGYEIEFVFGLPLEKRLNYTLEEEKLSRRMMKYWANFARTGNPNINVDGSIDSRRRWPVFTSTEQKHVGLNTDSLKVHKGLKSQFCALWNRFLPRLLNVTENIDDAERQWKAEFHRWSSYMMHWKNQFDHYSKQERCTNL

Row | Compound | IC50 [1] | Inhibition of SsCES, % inhibition at 20 μM [2] | CC50 [3] | Ferric Reducing Antioxidant Power, TE [4] | IC50 [5] | ABTS^•+-Scavenging Activity, TEAC [5] | noncompetitive component of inhibition constant (αKi), HsAChE [6] | type of inhibition, HsAChE ([6]; Vmax and Km both change) | Ki ([6]; read-out: competitive component of inhibition constant (Ki), HsAChE) | CC50 [7] | HsAβ42 self-Aggregation Inhibition, (%) [8] | noncompetitive component of inhibition constant (αKi), EcBChE [9] | type of inhibition, EcBChE ([9]; Vmax and Km both change) | Ki ([9]; read-out: competitive component of inhibition constant (Ki), EcBChE) | Propidium Displacement, (%) [10] | IC50 [11] | CC50 [12] | Experimental pKa [13]
1 | C=C[c-]1cccc1.[Fe+2].c1ccc2nc(-[c-]3cccc3)ccc2c1 [7b, 1-(Quinolin-2-yl)-1′-Vinylferrocene] | 3.68 ± 0.29 µM | 29.8 ± 2.6% | 277 ± 14.8 µM | 2.21 ± 0.02 | 5.3 ± 0.2 µM | 4.4 ± 0.2 | 3.05 ± 0.18 µM | mixed type of inhibition | 1.92 ± 0.13 µM | 287 ± 31.7 µM | 89.6 ± 6.2% | 4.58 ± 0.27 µM | mixed type of inhibition | 2.77 ± 0.22 µM | 7.7 ± 0.6% | 3.32 ± 0.23 µM | – | –
2 | C=C[c-]1cccc1.[Fe+2].c1ccc(-c2cccc(-[c-]3cccc3)n2)nc1 [7d, 1-(2,2′-Bipyridin-6-yl)-1′-Vinylferrocene] | 7.94 ± 0.55 µM | 5.8 ± 1.3% | 299 ± 21.9 µM | 1.93 ± 0.06 | 15.6 ± 0.7 µM | 1.36 ± 0.06 | – | – | – | 158 ± 19.8 µM | 81.5 ± 4.9% | – | – | – | 9.7 ± 0.6% | 6.34 ± 0.51 µM | – | –
3 | C=C(C)[c-]1cccc1.[Fe+2].c1ccc2nc(-[c-]3cccc3)ccc2c1 [5b] | 9.91 ± 0.69 µM | 35.4 ± 2.8% | 564 ± 31.8 µM | 3.13 ± 0.17 | 5.6 ± 0.3 µM | 4.3 ± 0.2 | – | – | – | 281 ± 30.1 µM | 82.9 ± 6.6% | – | – | – | 11.5 ± 0.8% | 4.01 ± 0.28 µM | – | –
4 | C=C(C)[c-]1cccc1.[Fe+2].c1ccc(-c2cccc(-[c-]3cccc3)n2)nc1 [5d] | 4.86 ± 0.39 µM | – | 414 ± 18.6 µM | 1.47 ± 0.06 | 20.8 ± 0.1 µM | 0.94 ± 0.05 | – | – | – | 189 ± 19.3 µM | 83.8 ± 4.2% | – | – | – | 8.2 ± 0.6% | 5.12 ± 0.41 µM | – | –
5 | CCC(=C(c1ccc(O)cc1)c1ccc(O)cc1)[c-]1cccc1.[Fe+2].c1cc[cH-]c1 [Ferrocifenol] | – | – | – | – | – | – | – | – | – | – | – | – | – | – | – | – | 0.9 µM | –
6 | CC(=C(c1ccc(O)cc1)c1ccc(O)cc1)[c-]1cccc1.[Fe+2].c1cc[cH-]c1 [compound 10, 1,1-bis(4-hydroxyphenyl)-2-ferrocenylprop-1-ene, reference compound] | – | – | 104 ± 12.3 µM | – | – | – | – | – | – | 43.4 ± 6.7 µM | – | – | – | – | – | – | 18.1 ± 2.1 µM | –
7 | [Fe+2].c1cc[cH-]c1.c1ccc(-c2cccc(-[c-]3cccc3)n2)nc1 [1d] | 13.8 ± 1.2 µM | 20.9 ± 1.6% | 632 ± 22.8 µM | 1.77 ± 0.04 | 20.6 ± 1.5 µM | 1.00 ± 0.04 | – | – | – | 152 ± 21.2 µM | 63.7 ± 5.1% | – | – | – | 11.1 ± 0.9% | 7.89 ± 0.63 µM | – | –
8 | [Fe+2].c1cc[cH-]c1.c1ccc2nc(-[c-]3cccc3)ccc2c1 [1b] | 2.7 ± 0.19 µM | 29.8 ± 2.0% | 393 ± 13.2 µM | 2.21 ± 0.01 | 6.6 ± 0.3 µM | 4.2 ± 0.2 | – | – | – | 243 ± 27.4 µM | 79.5 ± 6.3% | – | – | – | 10.2 ± 0.8% | 68.1 ± 3.4 µM | – | –
9 | c1ccc(-c2ccccn2)nc1 [Bipyridine] | – | – | – | – | – | – | – | – | – | – | – | – | – | – | – | – | – | 4.35
10 | CC(=C(c1ccc(O)cc1)c1ccc(O)cc1)[c-]1cccc1.[Fe+2].c1ccc2nc(-[c-]3cccc3)ccc2c1 [compound 11, 1-(quinolin-2-yl)-1’-{1-[bis(4-hydroxyphenyl)methylene]ethyl}ferrocene, reference compound] | – | – | 139 ± 15.7 µM | – | – | – | – | – | – | 57.8 ± 8.2 µM | – | – | – | – | – | – | 50.9 ± 3.65 µM | –
